Where “and” joins values, the source holds several entries; their conditions need not be identical. Identical values can stand only once. Counter-ions that a name gives are not always drawn.
First: O=C(NC(Cc1ccccc1)C(=O)O)OCc1ccc(C#Cc2ccccc2)cc1 (stereo not drawn) [Compound 182, 3-phenyl-2-(4-phenylethynyl-benzyloxycarbonylamino)-propionic acid]
Second: O=C(NC(Cc1ccccc1)C(=O)O)OCc1ccc(CSc2ccccc2)cc1 (stereo not drawn) [Compound 183, 3-phenyl-2-(4-phenylsulfanylmethyl-benzyloxycarbonylamino)-propionic acid]
The melting point of the first is higher: 172.1 to 173.4 °C for the first, 113.3 to 114.1 °C for the second.

`O=C(N[C@H](Cc1ccccc1)C(=O)O)OCc1ccc2[nH]c(-c3ccccc3)cc2c1` [Compound 132, (R)-3-phenyl-2-(2-phenyl-1H-indol-5-ylmethoxycarbonylamino)-propionic acid] and `O=C(N[C@H](Cc1ccccc1)C(=O)O)OCc1ccc2[nH]c(-c3ccccc3)nc2c1` [Compound 129, (R)-3-Phenyl-2-(2-phenyl-1H-benzoimidazol-5-ylmethoxycarbonylamino)-propionic acid] cannot be ordered by melting point: 176 to 177 °C for the first, 165 to 215 °C for the second.

Compared with `O=C(NC(Cc1ccccc1)C(=O)O)OCc1ccc(COc2ccccc2)c(F)c1` (stereo not drawn) [Compound 82, 2-(3-fluoro-4-phenoxymethyl-benzyloxycarbonylamino)-3-phenyl-propionic acid], `O=C(NC(Cc1ccccc1)C(=O)O)OCc1ccc(OCCc2ccccc2)cc1` (stereo not drawn) [Compound 86, 2-(4-phenethyloxy-benzyloxycarbonylamino)-3-phenyl-propionic acid] is lower in melting point: 104.2 to 104.7 °C for the first, 96.9 to 97.4 °C for the second.

First: COc1ccc(NCC(NC(=O)OCc2ccc(-c3ccccc3)cc2)C(=O)O)cc1 (stereo not drawn) [Compound 180, 2-(biphenyl-4-ylmethoxycarbonylamino)-3-(4-methoxy-phenylamino)-propionic acid]
Second: CCn1cc(CC(NC(=O)OCc2ccc(-c3ccccc3)cc2)C(=O)O)c2ccccc21 (stereo not drawn) [Compound 147, 2-(biphenyl-4-ylmethoxycarbonylamino)-3-(1-ethyl-1Hindol-3-yl)-propionic acid]
The melting point of the first is higher: 152.6 to 154.8 °C for the first, 136.8 to 138.5 °C for the second.

First: O=C(NC(Cc1cnccn1)C(=O)O)OCc1cc2cc(-c3ccccc3)ccc2o1 (stereo not drawn) [Compound 165, 2-(5-phenyl-benzofuran-2-ylmethoxycarbonylamino)-3-pyrazin-2-yl-propionic acid]
Second: O=C(NC(Cc1ccccc1)C(=O)O)OCc1cc2cc(-c3ccncc3)ccc2o1 (stereo not drawn) [Compound 174, 3-phenyl-2-(5-pyridin-4-yl-benzofuran-2-ylmethoxycarbonylamino)-propionic acid]
The melting point of the first is higher: 144.9 to 146 °C for the first, 119 to 121 °C for the second.

First: CC(=O)Nc1cccc(OCc2ccc(COC(=O)N[C@H](Cc3ccccc3)C(=O)O)cc2)c1 [Compound 79, (R)-2-[4-(3-acetylamino-phenoxymethyl)-benzyloxycarbonylamino]-3-phenyl-propionic acid]
Second: COc1cccc(OCc2ccc(COC(=O)NC(Cc3ccccc3)C(=O)O)cc2)c1 (stereo not drawn) (hydrate or solvate) [Compound 154, 2-[4-(3-methoxy-phenoxymethyl)-benzyloxycarbonylamino]-3-phenyl-propionic acid]
The melting point of the first is higher: 190.3 to 193.5 °C for the first, 62.5 to 64.8 °C for the second.

First: N#Cc1cccc(-c2ccc3oc(COC(=O)N[C@H](Cc4ccc(F)cc4)C(=O)O)cc3c2)c1 (hydrate or solvate) [Compound 112, (R)-2-[5-(3-cyano-phenyl)-benzofuran-2-ylmethoxycarbonylamino]-3-(4-fluoro-phenyl)-propionic acid]
Second: N#Cc1cccc(-c2ccc3oc(COC(=O)N[C@H](Cc4ccccc4)C(=O)O)cc3c2)c1 (hydrate or solvate) [Compound 96, (R)-2-[5-(3-cyano-phenyl)-benzofuran-2-ylmethoxycarbonylamino]-3-phenyl-propionic acid]
The melting point of the first is higher: 84 to 87.5 °C for the first, 64 to 68.5 °C for the second.

Compared with `O=C(N[C@H](Cc1ccccc1)C(=O)O)OCc1ccc(COc2cccc(NS(=O)(=O)c3ccccc3)c2)cc1` [Compound 78, (R)-2-[4-(3-benzenesulfonylamino-phenoxymethyl)-benzyloxycarbonylamino]-3-phenyl-propionic acid], `O=C(N[C@H](Cc1ccccc1)C(=O)O)OCc1ccc(COc2cccc([N+](=O)[O-])c2)cc1` [Compound 80, (R)-2-[4-(3-nitro-phenoxymethyl)-benzyloxycarbonylamino]-3-phenyl-propionic acid] is higher in melting point: 96.6 to 98.6 °C for the first, 160.8 to 161.7 °C for the second.

First: O=C(N[C@H](Cc1ccccc1)C(=O)O)OCc1cc2cc(-c3ccccc3F)ccc2o1 (hydrate or solvate) [Compound 98, (R)-2-[5-(2-fluoro-phenyl)-benzofuran-2-ylmethoxycarbonylamino]-3-phenyl-propionic acid]
Second: O=C(N[C@H](Cc1ccccc1)C(=O)O)OCc1cc2cc(-c3cc(F)ccc3F)ccc2o1 [Compound 103, (R)-2-[5-(2,5-difluoro-phenyl)-benzofuran-2-ylmethoxycarbonylamino]-3-phenyl-propionic acid]
The melting point of the first is higher: 97.1 to 100.8 °C for the first, 89.4 to 92.6 °C for the second.

First: O=C(NC(Cc1cccc(NS(=O)(=O)c2ccccc2)c1)C(=O)O)OCc1cc2cc(-c3ccccc3)ccc2o1 (stereo not drawn) [Compound 171, 3-(3-Benzenesulfonylamino-phenyl)-2-(5-phenyl-benzofuran-2-ylmethoxycarbonylamino)-propionic acid]
Second: O=C(N[C@H](Cc1ccc(Br)cc1)C(=O)O)OCc1cc2cc(-c3ccccc3)ccc2o1 [Compound 107, (R)-3-(4-bromo-phenyl)-2-(5-phenyl-benzofuran-2-ylmethoxycarbonylamino)-propionic acid]
The melting point of the first is lower: 105 to 108 °C for the first, 136 to 140 °C for the second.

First: O=C(N[C@H](Cc1ccc(F)cc1)C(=O)O)OCc1cc2cc(-c3ccccc3F)ccc2o1 [Compound 114, (R)-3-(4-fluoro-phenyl)-2-[5-(2-fluoro-phenyl)-benzofuran-2-ylmethoxycarbonylamino]-propionic acid]
Second: O=C(NC(Cc1ccncc1)C(=O)O)OCc1cc2cc(-c3ccc(F)cc3)ccc2o1 (stereo not drawn) [Compound 176, 2-[5-(4-fluoro-phenyl)-benzofuran-2-ylmethoxycarbonylamino]-3-pyridin-4-yl-propionic acid]
The melting point of the first is lower: 105.2 to 110.2 °C for the first, 255.2 to 255.7 °C for the second.

First: O=C(N[C@H](Cc1ccc(F)cc1)C(=O)O)OCc1ccc2oc(-c3cc(F)cc(F)c3)nc2c1 [Compound 160, (R)-2-[2-(3,5-difluoro-phenyl)-benzoxazol-5-ylmethoxycarbonylamino]-3-(4-fluoro-phenyl)-propionic acid]
Second: O=C(N[C@H](Cc1ccccc1)C(=O)O)OCc1ccc2oc(-c3cc(F)cc(F)c3)nc2c1 [Compound 162, (R)-2-[2-(3,5-difluoro-phenyl)-benzoxazol-5-ylmethoxycarbonylamino]-3-phenyl-propionic acid]
The melting point of the first is higher: 196.2 to 197.7 °C for the first, 193.8 to 195 °C for the second.

First: O=C(N[C@H](Cc1ccccc1)C(=O)O)OCc1cc2cc(-c3cc(F)cc(F)c3)ccc2o1 [Compound 99, (R)-2-[5-(3,5-difluoro-phenyl)-benzofuran-2-ylmethoxycarbonylamino]-3-phenyl-propionic acid]
Second: O=C(N[C@H](Cc1ccccc1)C(=O)O)OCc1cc2cc(-c3cccc4c3OCO4)ccc2o1 [Compound 102, (R)-2-(5-benzo[1,3]dioxol-4-yl-benzofuran-2-ylmethoxycarbonylamino)-3-phenyl-propionic acid]
The melting point of the first is lower: 163 to 167 °C for the first, 191 to 192 °C for the second.

Compared with `O=C(N[C@H](Cc1ccccc1)C(=O)O)OCC1Cc2cc(-c3ccccc3)ccc2O1` (stereo partly drawn) (as salt: salt) [Compound 68, (R)-3-Phenyl-2-(5-phenyl-2,3-dihydro-benzofuran-2-ylmethoxycarbonylamino)-propionic acid], `O=C(N[C@H](Cc1ccccc1)C(=O)O)OCc1ccc2oc(-c3ccccc3)cc2c1` [Compound 29, (R)-3-Phenyl-2-(2-phenyl-benzofuran-5-ylmethoxycarbonylamino)-propionic acid] is lower in melting point: 176.3 to 182 °C for the first, 172.8 to 173.5 °C for the second.

Compared with `CC(C)(C)c1ccc(-c2ccc3oc(COC(=O)N[C@H](Cc4ccc(F)cc4)C(=O)O)cc3c2)cc1` [Compound 117, (R)-2-[5-(4-tert-butyl-phenyl)-benzofuran-2-ylmethoxycarbonylamino]-3-(4-fluoro-phenyl)-propionic acid], `O=C(N[C@H](Cc1ccc(F)cc1)C(=O)O)OCc1ccc2oc(-c3ccc(F)cc3)nc2c1` [Compound 157, (R)-3-(4-fluoro-phenyl)-2-[2-(4-fluoro-phenyl)-benzoxazol-5-ylmethoxycarbonylamino]-propionic acid] is higher in melting point: 114.3 to 124.6 °C for the first, 197.1 to 198.7 °C for the second.

Compared with `O=C(NC(Cc1ccccc1)C(=O)O)OCc1ccc(OCc2ccc(F)cc2)cc1` (stereo not drawn) [Compound 85, 2-[4-(4-fluoro-benzyloxy)-benzyloxycarbonylamino]-3-phenyl-propionic acid], `O=C(NC(Cc1ccc(F)cc1)C(=O)O)OCc1ccc(-c2ccc(O)cc2)cc1` (stereo not drawn) [Compound 142, 3-(4-fluoro-phenyl)-2-(4′-hydroxy-biphenyl-4-ylmethoxycarbonylamino)-propionic acid] is lower in melting point: 134 to 138 °C for the first, 65 to 74 °C for the second.

First: O=C(NC(Cc1ccccc1)C(=O)O)OCc1ccc(NC(=O)c2ccccc2)cc1 (stereo not drawn) [Compound 181, 2-(4-benzoylamino-benzyloxycarbonylamino)-3-phenyl-propionic acid]
Second: O=C(N[C@H](Cc1ccccc1)C(=O)O)OCc1cc2cc(C(=O)c3ccccc3)ccc2o1 [Compound 136, (R)-3-phenyl-2-[5-(1-phenyl-methanoyl)-benzofuran-2-ylmethoxycarbonylamino]-propionic acid]
The melting point of the first is higher: 196.9 to 198.1 °C for the first, 136.3 to 138.6 °C for the second.

Work on `Cc1ccc(-c2cc(COC(=O)NC(Cc3ccccc3)C(=O)O)co2)cc1` (stereo not drawn) [Compound 127, 3-phenyl-2-(5-p-tolyl-furan-3-ylmethoxycarbonylamino)-propionic acid] yielded a melting point of 67.7 to 68.2 °C.

In the case of `O=C(NC(Cc1ccccc1)C(=O)O)OCc1ccc(COc2cccc3[nH]ccc23)cc1` (stereo not drawn) [Compound 41, 2-[4-(1H-indol-4-yloxymethyl)-benzyloxycarbonylamino]-3-phenyl-propionic acid], the melting point is reported as 106.8 to 108.2 °C and 105.9 to 108.5 °C.

Reference: patent US7056903B2, “Carboxylic acid derivatives as IP antagonists” (Syntex (U.S.A.) LLC, priority 2000, dated 2006)
